Among the data in US11236055B2 (Venenum Biodesign, LLC, priority 2016, dated 2022) are EC50 values, retold here.

The structures appear in SMILES notation. Bounds are passed on as bounds.

Test [1] has as its target T1, human TGR5 receptor (Homo sapiens, UniProt Q8TDU6).
T1 construct: host or cells: CHO-K1 (hTGR5-CHO cells)
T1 sequence (Q8TDU6 1-330): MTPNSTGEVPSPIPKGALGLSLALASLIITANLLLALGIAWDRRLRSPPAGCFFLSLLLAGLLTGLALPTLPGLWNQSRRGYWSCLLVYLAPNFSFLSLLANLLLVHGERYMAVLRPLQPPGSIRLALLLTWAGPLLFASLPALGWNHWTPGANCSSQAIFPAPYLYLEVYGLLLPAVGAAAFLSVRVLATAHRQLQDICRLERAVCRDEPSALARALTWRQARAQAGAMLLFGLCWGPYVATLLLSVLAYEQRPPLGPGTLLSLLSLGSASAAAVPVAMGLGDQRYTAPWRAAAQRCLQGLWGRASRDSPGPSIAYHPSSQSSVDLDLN
Description: Human TGR5 cAMP production assay. Type of test: cell-based. The following applies: human TGR5, luminescent cAMP assay; coded A-D; read-out: Human TGR5 Lum. cAMP Activity (EC50). Put shortly:
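CHO-K1 cells stably expressing human TGR5, with IBMX and cAMP antibody, were exposed to half-log serially diluted compound for 1 h at room temperature. cAMP measured by enzyme-fragment complementation luminescence (XS+ kit) after overnight incubation; EC50 values reported.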

Test [2] has as its target T2, mouse TGR5 receptor (Mus musculus, UniProt Q80SS6).
T2 construct: expressed in transfected cells; host or cells: HEK293-EBNA (293 c18, ATCC CRL10852), Hygromycin B selection
T2 sequence (Q80SS6 1-329): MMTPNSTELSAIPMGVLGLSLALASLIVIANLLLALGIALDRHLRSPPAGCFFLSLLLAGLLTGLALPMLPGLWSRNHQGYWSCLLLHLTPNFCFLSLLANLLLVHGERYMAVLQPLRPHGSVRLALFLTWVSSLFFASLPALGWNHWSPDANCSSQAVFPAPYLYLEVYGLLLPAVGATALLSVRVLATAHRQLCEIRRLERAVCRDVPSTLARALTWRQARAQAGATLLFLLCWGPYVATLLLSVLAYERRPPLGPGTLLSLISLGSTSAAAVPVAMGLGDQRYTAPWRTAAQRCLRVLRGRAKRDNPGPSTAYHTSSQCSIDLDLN
Description: Mouse TGR5 cAMP production assay (HTRF, Cisbio cAMP HiRange). Type of test: cell-based. The following applies: HEK293-EBNA cells overexpressing mouse TGR5, HTRF cAMP HiRange; coded A-D. Put shortly: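 cAMP read by HTRF competition after 1 h room-temperature compound exposure of mouse TGR5-overexpressing HEK293-EBNA cells. Cells were suspended in serum-free DMEM containing 500 μM IBMX; compounds ran as 12-point half-log dilutions in duplicate; EC50 derived.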

As to `Cc1cnccc1-c1cccc(C(C)(C)N(CCCNS(=O)(=O)CCN)S(=O)(=O)c2cccc(Cl)c2C)c1` [Compound 26, N-(3-((2-aminoethyl)sulfonamido)propyl)-3-chloro-2-methyl-N-(2-(3-(3-methylpyridin-4-yl)phenyl)propan-2-yl)benzenesulfonamide], the half-maximal effective concentration (EC50) in test [1] is below 100 nM; in test [2] it was 100 to 999 nM.

`Cc1cnccc1-c1cccc(C(C)(C)N(CCCNS(=O)(=O)CCN2C(=O)c3ccccc3C2=O)S(=O)(=O)c2cccc(Cl)c2C)c1` [Compound 26A, 3-Chloro-N-(3-((2-(1,3-dioxoisoindolin-2-yl)ethyl)sulfonamido)propyl)-2-methyl-N-(2-(3-(3-methylpyridin-4-yl)phenyl)propan-2-yl)benzenesulfonamide]: the EC50 in test [1] was below 100 nM; in test [2] it was 100 to 999 nM.

For `COC(=O)CS(=O)(=O)NCCOCCNC(=O)CCCCN([C@@H](C)c1cccc(-c2ccncc2C)c1)S(=O)(=O)c1cccc(Cl)c1C` [Compound 26AC], the EC50 in test [1] was below 100 nM; in test [2], 100 to 999 nM.

As for `Cc1cnccc1-c1cccc([C@H](C)N(CCCCC(=O)NCCOCCNS(=O)(=O)CC(=O)O)S(=O)(=O)c2cccc(Cl)c2C)c1` [Compound 26AD], the EC50 in test [1] and in test [2] was below 100 nM in each case.

Take `CCc1cnccc1-c1cccc([C@H](C)N(CCCCNS(=O)(=O)CCC(=O)O)S(=O)(=O)c2cccc(Cl)c2C)c1` [Compound 26AE, (S)-3-(N-(4-(3-chloro-N-(1-(3-(3-ethylpyridin-4-yl)phenyl)ethyl)-2-methylphenylsulfonamido)butyl)sulfamoyl)propanoic acid]: the 50% effective concentration (EC50) in test [1] and in test [2] was below 100 nM in each case.

Consider `Cc1cnccc1-c1cccc(C(C)(C)N(CCCNc2ncc(C(=O)O)cn2)S(=O)(=O)c2cccc(Cl)c2C)c1` [Compound 27, 2-((3-((3-chloro-2-methyl-N-(2-(3-(3-methylpyridin-4-yl)phenyl)propan-2-yl)phenyl)sulfonamido)propyl)amino)pyrimidine-5-carboxylic acid], for which the values for the EC50 in test [1] and in test [2] were below 100 nM and 100 to 999 nM, respectively.

For `Cc1cnccc1-c1cccc(C(C)(C)N(CCCC(=O)NCCNc2ncc(C(=O)O)cn2)S(=O)(=O)c2cccc(Cl)c2C)c1` [Compound 27AA, 2-((2-(4-(3-chloro-2-methyl-N-(2-(3-(3-methylpyridin-4-yl)Phenyl)propan-2-yl)phenylsulfonamido)butanamido)ethyl)amino)pyrimidine-5-carboxylic acid], the 50% effective concentration (EC50) in test [1] and in test [2] was below 100 nM throughout.

Consider `Cc1cnccc1-c1cccc(C(C)(C)N(CCCC(=O)NCCNC(=N)N)S(=O)(=O)c2cccc(Cl)c2C)c1` [Compound 27AB, 4-(3-chloro-2-methyl-N-(2-(3-(3-methylpyridin-4-yl)phenyl)propan-2-yl)phenylsulfonamido)-N-(2-guanidinoethyl)butanamide], for which the concentration giving a half-maximal response (EC50) in test [1] was below 100 nM; in test [2], 100 to 999 nM.

On to `Cc1cnccc1-c1cccc(C(C)(C)N(CCCNS(=O)(=O)CCNC(=N)N)S(=O)(=O)c2cccc(Cl)c2C)c1` [Compound 27AC, 3-chloro-N-(3-((2-guanidinoethyl)sulfonamido)propyl)-2-methyl-N-(2-(3-(3-methylpyridin-4-yl)phenyl)propan-2-yl)benzenesulfonamide], for which the 50% effective concentration (EC50) was below 100 nM in test [1] and 100 to 999 nM in test [2].

`CCc1cnccc1-c1cccc([C@H](C)N(CCCC(=O)NCC[N+](C)(C)C)S(=O)(=O)c2cccc(Cl)c2C)c1` [Compound 27AE, (S)-2-(4-(3-chloro-N-(1-(3-(3-ethylpyridin-4-yl)phenyl)ethyl)-2-methylphenylsulfonamido)butanamido)-N,N,N-trimethylethanaminium]: the EC50 in test [1] is below 100 nM; in test [2], 100 to 999 nM.

In the case of `Cc1cnccc1-c1cccc([C@H](C)N(CCCCNC(=O)NCCS(=O)(=O)O)S(=O)(=O)c2ccccc2C(F)(F)F)c1` [Compound 28AB, (S)-2-(3-(4-(N-(1-(3-(3-methylpyridin-4-yl)phenyl)ethyl)-2-(trifluoromethyl)phenylsulfonamido)butyl)ureido)ethanesulfonic acid], the EC50 in test [1] is below 100 nM; in test [2] it was 100 to 999 nM.

For the compound `Cc1cnccc1-c1cccc(C(C)(C)N(CCCNS(=O)(=O)CCNC(=O)NCCS(=O)(=O)O)S(=O)(=O)c2cccc(Cl)c2C)c1` [Compound 28AD, 2-(3-(2-(N-(3-((3-chloro-2-methyl-N-(2-(3-(3-methylpyridin-4-yl)phenyl)propan-2-yl)phenyl)sulfonamido)propyl)sulfamoyl)ethyl)ureido)ethane-1-sulfonic acid], the 50% effective concentration (EC50) in test [1] and in test [2] was below 100 nM throughout.

For `Cc1cnccc1-c1cccc(C(C)(C)N(CCCNS(=O)(=O)CCNC(=O)NCCCS(=O)(=O)O)S(=O)(=O)c2cccc(Cl)c2C)c1` [Compound 28AE, 3-(3-(2-(N-(3-((3-chloro-2-methyl-N-(2-(3-(3-methylpyridin-4-yl)phenyl)-propan-2-yl)phenyl)sulfonamido)-propyl)sulfamoyl)ethyl)ureido)propane-1-sulfonic acid], the EC50 in test [1] was below 100 nM; in test [2], 100 to 999 nM.

`Cc1cnccc1-c1cccc([C@H](C)N(CCCCC(=O)NCCOCCNC(=O)NCCS(=O)(=O)O)S(=O)(=O)c2cccc(Cl)c2C)c1` [Compound 28AF, (S)-17-((3-chloro-2-methylphenyl)sulfonyl)-18-(3-(3-methylpyridin-4-yl)phenyl)-4,12-dioxo-8-oxa-3,5,11,17-tetraazanonadecane-1-sulfonic acid]: the EC50 in test [1] was below 100 nM; in test [2], 100 to 999 nM.

Turning to `Cc1cnccc1-c1cccc(C(CCCCNC(=O)NCCS(=O)(=O)O)NS(=O)(=O)c2ccccc2C(F)(F)F)c1` (stereo not drawn) [Compound 28AG, 2-(3-(5-(3-(3-methylpyridin-4-yl)phenyl)-5-(2-(trifluoromethyl)phenylsulfonamido)pentyl)ureido)ethanesulfonic acid], the EC50 in test [1] and in test [2] was 100 to 999 nM throughout.

For the compound `Cc1cnccc1-c1cccc(CN(CCCNC(=O)NCS(=O)(=O)O)S(=O)(=O)c2cccc(Cl)c2C)c1` [Compound 28AI, (3-(3-(3-chloro-2-methyl-N-(3-(3-methylpyridin-4-yl)benzyl)phenylsulfonamido)propyl)ureido)methanesulfonic acid], the EC50 in test [1] and in test [2] was 100 to 999 nM in each case.

Regarding `Cc1cnccc1-c1cccc(C(C)(C)N(CCCNC(=O)NCCCS(=O)(=O)O)S(=O)(=O)c2cccc(Cl)c2C)c1` [Compound 29AC], the EC50 in test [1] and in test [2] was below 100 nM in each case.

On to `Cc1cnccc1-c1cccc(CCN(CCCNC(=O)NCS(=O)(=O)O)S(=O)(=O)c2cccc(Cl)c2C)c1` [Compound 29AD, (3-(3-(3-chloro-2-methyl-N-(3-(3-methylpyridin-4-yl)phenethyl)phenylsulfonamido)propyl)ureido)methanesulfonic acid], for which the results for the concentration for a half-maximal effect (EC50) in test [1] and in test [2] were 100 to 999 nM and 1000 to 30000 nM, respectively.

With `Cc1cnccc1-c1cccc([C@H](C)N(CCCC(=O)NCCNC(=O)NCCC(=O)O)S(=O)(=O)c2cccc(Cl)c2C)c1` [Compound 30, (S)-3-((3-Chloro-2-methylphenyl)sulfonyl)-2-(3-(3-methylpyridin-4-yl)phenyl)-7,12-dioxo-3,8,11,13-tetraazahexadecan-16-oic acid], the EC50 in test [1] was below 100 nM; in test [2], 100 to 999 nM.

In the case of `Cc1cnccc1-c1cccc([C@H](C)N(CCCCC(=O)NCCOCCNC(=O)CS(=O)(=O)O)S(=O)(=O)c2cccc(Cl)c2C)c1` [Compound 31, (S)-15-((3-chloro-2-methylphenyl)sulfonyl)-16-(3-(3-methylpyridin-4-yl)phenyl)-2,10-dioxo-6-oxa-3,9,15-triazaheptadecane-1-sulfonic acid], the EC50 in test [1] and in test [2] was below 100 nM in each case.

Take `CCc1cnccc1-c1cccc([C@H](C)N(CCCCNC(=O)[C@@H](N)CS(=O)(=O)O)S(=O)(=O)c2cccc(Cl)c2C)c1` [Compound 31AD, (R)-2-amino-3-((4-(3-chloro-N-((S)-1-(3-(3-ethylpyridin-4-yl)phenyl)ethyl)-2-methylphenylsulfonamido)butyl)amino)-3-oxopropane-1-sulfonic acid]: the EC50 in test [1] and in test [2] was below 100 nM in each case.
